Assay results published in US10875876B2, “Cyclized sulfamoylarylamide derivatives and the use thereof as medicaments for the treatment of hepatitis B” (priority 2015, dated 2020).

Columns and labels:
HBV = experiment: anti HBV activity, HepG2.117 cell line, intracellular HBV DNA by realtime PCR; format: cell-based; conditions: Hepatitis B virus, HepG2.117, 72 h, HepG2.117 cell line (Tet-off), 3 days of treatment, intracellular HBV DNA quantified by realtime PCR; read-out: HBV-AVE-HepG2.117 EC50
Description: The anti HBV activity was measured using the HepG2.117 cell line, a stable, inducibly HBV producing cell line, which replicates HBV in the absence of doxicycline (Tet-off system). For the antiviral assay, HBV replication was induced, followed by a treatment with serially diluted compound in 96-well plates in duplicate. After 3 days of treatment, the antiviral activity was determined by quantification of intracellular HBV DNA using realtime PCR and an HBV specific primer set and probe.

[1] = Cytotoxicity in HepG2 cells, Resazurin assay; conditions: human, HepG2 cells, TOX-HepG2-4 d CC50 (μM), HepG2 cells incubated for 4 days, viability by Resazurin assay

Row | Compound | EC50 (HBV) | CC50 at 4 days [1]
1 | Cn1cc2c(c1C(=O)Nc1ccc(F)c(Cl)c1)OC[C@H](C(O)C1CC1)NS2(=O)=O (single isomer, unassigned) [Compound 207a, N-(3-chloro-4-fluoro-phenyl)-3-[cyclopropyl(hydroxy)methyl]-7-methyl-1,1-dioxo-3,4-dihydro-2H-pyrrolo[3,4-b][1,4,5]oxathiazepine-6-carboxamide] | 0.008 µM | > 25 µM
2 | CN(C)CC1COc2c(cn(C)c2C(=O)Nc2ccc(F)c(F)c2)S(=O)(=O)N1 (centres unmarked) [Compound 110, N-(3,4-difluorophenyl)-3-(dimethylaminomethyl)-7-methyl-1,1-dioxo-3,4-dihydro-2H-pyrrolo[3,4-b][1,4,5]oxathiazepine-6-carboxamide] | 0.2 µM | > 25 µM
3 | Cn1cc2c(c1C(=O)Nc1ccc(F)c(C(F)F)c1)C=CC1(COC1)NS2(=O)=O [Compound 139, N-[3-(difluoromethyl)-4-fluoro-phenyl]-7-methyl-1,1-dioxo-spiro[2H-pyrrolo[3,4-f]thiazepine-3,3′-oxetane]-6-carboxamide] | 0.016 µM | > 25 µM
4 | C[C@@H](N1CC/C=C\c2c(cn(C)c2C(=O)Nc2ccc(F)c(F)c2)S1(=O)=O)C(F)(F)F [Compound 3, (5Z)—N-(3,4-difluorophenyl)-8-methyl-1,1-dioxo-2-[(1R)-2,2,2-trifluoro-1-methyl-ethyl]-3,4-dihydropyrrolo[3,4-g]thiazocine-7-carboxamide] | > 0.5 µM | > 25 µM
5 | Cn1cc2c(c1C(=O)Nc1cc(F)c(F)c(F)c1)C=CC1(COC1)NS2(=O)=O [Compound 143, 7-methyl-1,1-dioxo-N-(3,4,5-trifluorophenyl)spiro[2H-pyrrolo[3,4-f]thiazepine-3,3′-oxetane]-6-carboxamide] | 0.024 µM | > 25 µM
6 | C[C@H](O)[C@H]1C=Cc2c(cn(C)c2C(=O)Nc2ccc(F)c(C#N)c2)S(=O)(=O)N1 [Compound 87, (3R)—N-(3-cyano-4-fluoro-phenyl)-3-[(1S)-1-hydroxyethyl]-7-methyl-1,1-dioxo-2,3-dihydropyrrolo[3,4-f]thiazepine-6-carboxamide] | 0.018 µM | > 25 µM
7 | C[C@H](O)[C@H]1C=Cc2c(cn(C)c2C(=O)Nc2ccc(F)c(C#N)c2F)S(=O)(=O)N1 [Compound 178, (3R)—N-(3-cyano-2,4-difluoro-phenyl)-3-[(1S)-1-hydroxyethyl]-7-methyl-1,1-dioxo-2,3-dihydropyrrolo[3,4-f]thiazepine-6-carboxamide] | 0.016 µM | > 25 µM
8 | C[C@H]1C=Cc2c(cn(C)c2C(=O)Nc2ccc(F)c(Cl)c2F)S(=O)(=O)N1 (single isomer, unassigned) [Compound 52, (3*S)—N-(3-chloro-2,4-difluoro-phenyl)-3,7-dimethyl-1,1-dioxo-2,3-dihydropyrrolo[3,4-f]thiazepine-6-carboxamide] | 0.056 µM | > 25 µM
9 | C[C@H](O)[C@H]1CCc2c(cn(C)c2C(=O)Nc2ccc(F)c(C#N)c2F)S(=O)(=O)N1 [Compound 159, (3R)—N-(3-cyano-2,4-difluoro-phenyl)-3-[(1S)-1-hydroxyethyl]-7-methyl-1,1-dioxo-2,3,4,5-tetrahydropyrrolo[3,4-f]thiazepine-6-carboxamide] | 0.014 µM | > 25 µM
10 | Cn1cc2c(c1C(=O)Nc1cc(F)c(F)c(F)c1)OC[C@H](C(O)C1CC1)NS2(=O)=O (single isomer, unassigned) [Compound 208a, 3-[cyclopropyl(hydroxy)methyl]-7-methyl-1,1-dioxo-N-(3,4,5-trifluorophenyl)-3,4-dihydro-2H-pyrrolo[3,4-b][1,4,5]oxathiazepine-6-carboxamide] | 0.008 µM | > 25 µM
11 | C[C@@H]1Oc2c(cn(C)c2C(=O)Nc2ccnc(C(F)F)c2)S(=O)(=O)N[C@@H]1CO [compound 233] | > 0.5 µM | > 25 µM
12 | CC1CCC/C=C\Cc2c(cn(C)c2C(=O)Nc2ccc(F)c(F)c2)S(=O)(=O)N1 (centres unmarked) [Compound 2a, 8Z—N-(3,4-difluorophenyl)-4,13-dimethyl-2,2-dioxo-2λ^6-thia-3,13-diazabicyclo[9.3.0]tetradeca-1(14),8,11-triene-12-carboxamide] | 0.28 µM | > 25 µM
13 | CCC(O)[C@H]1COc2c(cn(C)c2C(=O)Nc2ccc(F)c(C(F)F)c2)S(=O)(=O)N1 (stereo partly drawn) [Compound 124a, (3R)—N-[3-(difluoromethyl)-4-fluoro-phenyl]-3-(1-hydroxypropyl)-7-methyl-1,1-dioxo-3,4-dihydro-2H-pyrrolo[3,4-b][1,4,5]oxathiazepine-6-carboxamide] | 0.005 µM | > 25 µM
14 | CCC(O)[C@H]1COc2c(cn(C)c2C(=O)Nc2ccc(F)c(F)c2)S(=O)(=O)N1 (stereo partly drawn) [Compound 130a, (3R)—N-(3,4-difluorophenyl)-3-(1-hydroxypropyl)-7-methyl-1,1-dioxo-3,4-dihydro-2H-pyrrolo[3,4-b][1,4,5]oxathiazepine-6-carboxamide] | 0.018 µM | > 25 µM
15 | Cn1cc2c(c1C(=O)Nc1ccc(F)c(F)c1)OCC(C1CCN(CC(F)(F)F)CC1)NS2(=O)=O (centres unmarked) [Compound 78, N-(3,4-difluorophenyl)-7-methyl-1,1-dioxo-3-[1-(2,2,2-trifluoroethyl)-4-piperidyl]-3,4-dihydro-2H-pyrrolo[3,4-b][1,4,5]oxathiazepine-6-carboxamide] | 0.056 µM | > 25 µM
16 | C[C@@H]1Oc2c(cn(C)c2C(=O)Nc2ccc(F)c(F)c2)S(=O)(=O)N[C@@H]1C [compound 230] | > 0.5 µM | > 25 µM
17 | Cc1cccc(C2(C)COc3c(cn(C)c3C(=O)Nc3ccc(F)c(F)c3)S(=O)(=O)N2)n1 (racemic) [Compound 168, N-(3,4-difluorophenyl)-3,7-dimethyl-3-(6-methyl-2-pyridyl)-1,1-dioxo-2,4-dihydropyrrolo[3,4-b][1,4,5]oxathiazepine-6-carboxamide] | 0.025 µM | > 25 µM
18 | CC(C)[C@@H]1COc2c(ccc(F)c2C(=O)Nc2ccc(F)c(F)c2)S(=O)(=O)N1 [Compound 48, (3R)—N-(3,4-difluorophenyl)-7-fluoro-3-isopropyl-1,1-dioxo-3,4-dihydro-2H-5,1λ^6,2-benzoxathiazepine-6-carboxamide] | 0.084 µM | > 25 µM
19 | Cc1cc(CC2(C)COc3c(cn(C)c3C(=O)Nc3ccc(F)c(C(F)F)c3)S(=O)(=O)N2)n(C)n1 (racemic) [Compound 176, N-[3-(difluoromethyl)-4-fluoro-phenyl]-3-[(2,5-dimethylpyrazol-3-yl)methyl]-3,7-dimethyl-1,1-dioxo-2,4-dihydropyrrolo[3,4-b][1,4,5]oxathiazepine-6-carboxamide] | 0.004 µM | > 25 µM
20 | Cn1cc2c(c1C(=O)Nc1ccc(F)c(C#N)c1)C=CC(C(F)F)NS2(=O)=O (centres unmarked) [Compound 189, N-(3-cyano-4-fluoro-phenyl)-3-(difluoromethyl)-7-methyl-1,1-dioxo-2,3-dihydropyrrolo[3,4-f]thiazepine-6-carboxamide] | 0.11 µM | > 25 µM
21 | Cn1cc2c(c1C(=O)Nc1ccc(F)c(C(F)F)c1)OC[C@H](Cc1cccnc1)NS2(=O)=O [Compound 75, (3S)—N-[3-(difluoromethyl)-4-fluoro-phenyl]-7-methyl-1,1-dioxo-3-(3-pyridylmethyl)-3,4-dihydro-2H-pyrrolo[3,4-b][1,4,5]oxathiazepine-6-carboxamide] | 0.007 µM | > 25 µM
22 | C=C1c2c(cn(C)c2C(=O)Nc2ccc(F)c(F)c2)S(=O)(=O)NC1C(C)C (centres unmarked) [compound 237] | > 0.5 µM | > 25 µM
23 | CC(C)[C@H]1COc2c(ccc(F)c2C(=O)Nc2ccc(F)c(C#N)c2)S(=O)(=O)N1 [Compound 45, (3S)—N-(3-cyano-4-fluoro-phenyl)-7-fluoro-3-isopropyl-1,1-dioxo-3,4-dihydro-2H-5,1λ^6,2-benzoxathiazepine-6-carboxamide] | 0.23 µM | > 25 µM
24 | Cc1cc(NC(=O)c2c3c(cn2C)S(=O)(=O)N[C@@H](C)CC3)ccc1F (single isomer, unassigned) [Compound 41, (3*S)—N-(4-fluoro-3-methyl-phenyl)-3,7-dimethyl-1,1-dioxo-2,3,4,5-tetrahydropyrrolo[3,4-f]thiazepine-6-carboxamide] | 0.008 µM | > 25 µM
25 | COCOC(c1ccccn1)C1COc2c(cn(C)c2C(=O)Nc2ccc(F)c(F)c2)S(=O)(=O)N1 (centres unmarked) [Compound 129, N-(3,4-difluorophenyl)-3-[methoxymethoxy(2-pyridyl)methyl]-7-methyl-1,1-dioxo-3,4-dihydro-2H-pyrrolo[3,4-b][1,4,5]oxathiazepine-6-carboxamide] | 0.012 µM | > 25 µM
26 | CC1CNc2c(cn(C)c2C(=O)Nc2ccc(F)c(F)c2)S(=O)(=O)N1 (centres unmarked) [Compound 67, N-(3,4-difluorophenyl)-3,7-dimethyl-1,1-dioxo-2,3,4,5-tetrahydropyrrolo[3,4-f][1,2,5]thiadiazepine-6-carboxamide] | 0.069 µM | > 25 µM
27 | CC(C)[C@@H]1Oc2c(cn(C)c2C(=O)Nc2ccc(F)c(F)c2)S(=O)(=O)N[C@H]1CO [compound 241] | > 0.25 µM | > 25 µM
28 | Cc1cc(CC2(C)COc3c(cn(C)c3C(=O)Nc3ccc(F)c(F)c3)S(=O)(=O)N2)no1 (racemic) [Compound 162, N-(3,4-difluorophenyl)-3,7-dimethyl-3-[(5-methylisoxazol-3-yl)methyl]-1,1-dioxo-2,4-dihydropyrrolo[3,4-b][1,4,5]oxathiazepine-6-carboxamide] | 0.003 µM | > 25 µM
